Non-standard residues stand in square brackets, D forms with d. Residues, ends and D or L forms follow the SMILES beside them. Dab = NCC[C@H](N)C(=O)O
Experiments:
Type in all cases: binding
[1] = tested on: RNA duplex 1; test: CD analysis of RNA duplex with peptides/depsipeptides; conditions: RNA duplex 5 µM, peptide/depsipeptide 0–10 µM, MES-TEA buffer (60 mM)
Description: The gel was cropped at the edges for clarity. […] […] Red and blue colors of the filled circles correspond to curves of the same color in panel (c). […] […] Scans were from 320 nm to 220 nm with a bandwidth of 5 nm, data pitch of 0.2 nm, and scan rate of 50 nm/min with three accumulations. […] Data were collected in independent triplicates and the data were averaged. Finally, data were smoothed and plotted using Matlab.

[2] = tested on: RNA duplex 1 (5′-rCrGrCrUrArArArUrCrG-3′ & 5′-rCrGrArUrUrUrArGrCrG-3′); test: RNA thermal denaturation (Tm) by UV hyperchromicity at 260 nm with synthetic peptides/depsipeptides, RNA duplex 1; conditions: 100 mM NaCl; for RNA duplex 1 Tm: observed Tm with peptide/depsipeptide 100 µM, mean ± SD of 2-4 independent experiments; for RNA duplex 1 ΔTm: peptide/depsipeptide 100 μM, RNA 2.5 μM each strand, mean of 2–4 replicates
Method: Each sample contained RNA duplex 1 (5′-rCrGrCrUrArArArUrCrG-3′ and 5′-rCrGrArUrUrUrArGrCrG-3′, 2.5 μM strand) and peptide/depsipeptide (100 μM) in buffered solution (10 mM phosphate, 100 mM NaCl, pH 7.0 or 10 mM acetate, 100 mM NaCl, pH 5.0). a Structures of depsipeptides used to systematically characterize cationic side chain effects on RNA duplex stability. Lactic acid residues are highlighted. Ac acetyl, Aba acetamidobenzoic acid, which was appended to the N-terminus to increase UV absorbance. b Structures of the Fmoc-didepsipeptide building blocks used for solid-phase synthesis of depsipeptide sequences. Fmoc fluorenylmethoxycarbonyl. c Comparative effects of oligo-didepsipeptide sequences 2–6 and analogous oligo-dipeptide and on the Tm of the RNA duplex (number of independent measurements: n = 3 for Arg and Lys sequences; n = 2 for His and Dab sequences; n = 4 for Orn sequences). The shaded areas correspond to the mean ± SD Tm measured for the RNA duplex alone (n = 16 independent measurements). Data are shown as a scatter plot with mean ± SD. d Comparative effects on RNA duplex Tm of depsipeptide sequences containing a single backbone ester (number of independent measurements: n = 3 for Arg; n = 2 for His, Orn, and Dab; n = 4 for Lys), relative to RNA duplex alone (n = 16 independent measurements). Data are shown as a scatter plot with mean ± SD. e To assess the impact of different cationic side chains on depsipeptide degradation rates, depsipeptides 7–11 (40 μM) were incubated at 37 °C in buffer (100 mM HEPES, 10 mM NaCl, pH 7.3). After 5 min, the reactions were quenched by the addition of 3% TFA, and samples were analyzed by HPLC.
(§1) Prior to Tm analyses, RNA samples were annealed in the appropriate buffer by heating to 75 °C and slowly cooling to room temperature. Depsipeptide/peptide was added to the annealed RNA and incubated at 4 °C for 20 min prior to carrying out the analysis. For analyses involving dry-down reaction mixtures, the Tm was determined by monitoring fluorescence increase upon melting of a fluorophore/quencher-labeled RNA duplex (5′-rCrGrArUrUrUrArGrCrG-/3IABkFQ/-3′ and 3′-rGrCrUrArArArUrCrGrC-FAM-5′) using a BioRad CFX Connect rtPCR instrument with a heating ramp of 1 °C/min and 20 μL final sample volumes. For analyses involving pure, synthetic compounds, the Tm of the RNA was determined by monitoring UV hyperchromicity at 260 nm using a Varian Cary Bio-100 spectrophotometer, with a heating ramp of 1 °C/min and 0.5- or 1-cm pathlength cells. The following RNA sequences were used: RNA duplex 1 = 5′-rCrGrCrUrArArArUrCrG-3′ and 5′-rCrGrArUrUrUrArGrCrG-3′; RNA duplex 2 = 5′-rArArArArUrUrUrArUrArUrUrArUrUrA-3′ and 5′-rUrArArUrArArUrArUrArArArUrUrUrU-3′; RNA duplex 3 = 5′-rArArCrGrUrArUrArCrGrUrU-3′ (palindromic); and H26a RNA = 5′-rArUrGrArGrUrArArCrCrGrUrArArGrGrUrGrArArArUrU-3′. RNA was present in each assay at a final concentration of 2.5 μM of the folded structure (2.5 μM each strand for duplex 1 and duplex 2, 5.0 μM palindromic strand for duplex 3, 2.5 μM strand for H26a RNA). Tm values were determined by nonlinear fitting of the melting curves using GraphPad Prism 8.2.1 for duplex 1 and H26a, or by finding the maximum of the first derivative of the curve using the Varian Cary Bio-100 software for duplex 2 and duplex 3.

[3] = tested on: RNA duplex 2 (5′-rArArArArUrUrUrArUrArUrUrArUrUrA-3′ and 5′-rUrArArUrArArUrArUrArArArUrUrUrU-3′); test: RNA thermal denaturation (Tm) by UV hyperchromicity, RNA duplex 2; conditions: for RNA duplex 2 Tm: observed Tm with peptide/depsipeptide 100 µM, pH 7.0, RNA alone 33.7 ± 0.7, mean ± SD of 2-4 independent experiments; for RNA duplex 2 ΔTm: peptide/depsipeptide 100 μM, RNA 2.5 μM each strand, pH 7.0, 10 mM phosphate, 100 mM NaCl, mean of 2–4 replicates
Method: as §1, with “3. Both methods of determining the Tm gave similar values for a given denaturation curve.” for “3.”

[4] = tested on: RNA duplex 3 (5′-rArArCrGrUrArUrArCrGrUrU-3′, palindromic); test: RNA thermal denaturation (Tm) by UV hyperchromicity, RNA duplex 3; conditions: for RNA duplex 3 Tm: observed Tm with peptide/depsipeptide 100 µM, pH 7.0, RNA alone 48.6 ± 0.7, mean ± SD of 2-4 independent experiments; for RNA duplex 3 ΔTm: peptide/depsipeptide 100 μM, 5.0 μM palindromic strand, pH 7.0, 10 mM phosphate, 100 mM NaCl, mean of 2–4 replicates
Method: as §1, with “3. Both methods of determining the Tm gave similar values for a given denaturation curve.” for “3.”

[5] = tested on: H26a RNA (5′-rArUrGrArGrUrArArCrCrGrUrArArGrGrUrGrArArArUrU-3′); test: RNA thermal denaturation (Tm) by UV hyperchromicity, H26a RNA hairpin; conditions: for H26a RNA Tm: observed Tm with peptide/depsipeptide 100 µM, pH 7.0, RNA alone 53.4 ± 0.5, mean ± SD of 2-4 independent experiments; for H26a RNA ΔTm: peptide/depsipeptide 100 μM, RNA 2.5 μM strand, pH 7.0, 10 mM phosphate, 100 mM NaCl, mean of 2–4 replicates
Method: as §1, with “3. Both methods of determining the Tm gave similar values for a given denaturation curve.” for “3.”

[6] = pH 7.0, 10 mM phosphate, RNA alone 43.8 ± 0.4
[7] = 10 mM phosphate, pH 7.0, vs RNA alone at matched pH
[8] = pH 5.0, 10 mM acetate, RNA alone 41.5 ± 0.3
[9] = 10 mM acetate, pH 5.0, vs RNA alone at pH 5.0

CC(=O)N[C@@H](Cc1ccc(O)cc1)C(=O)NCC(=O)N[C@@H](C)C(=O)N[C@@H](CCN)C(=O)N[C@@H](CCCCN)C(=O)N[C@@H](C)C(=O)N[C@@H](CCN)C(=O)N[C@@H](CCCCN)C(=O)N[C@@H](C)C(=O)N[C@@H](CCN)C(=O)N[C@@H](CCCCN)C(=O)N[C@@H](C)C(=O)N[C@@H](CCN)C(=O)N[C@@H](CCCCN)C(=O)N[C@@H](C)C(=O)N[C@@H](CCN)C(=O)N[C@@H](CCCCN)C(N)=O (Ac-YGA[Dab]KA[Dab]KA[Dab]KA[Dab]KA[Dab]K-NH2)
changes in CD spectra of the RNA duplex upon addition [1]: physical association

Aba-Gly-Ala-Dab-Lys-Ala-Dab-Orn-lac-Dab-Lys-Ala-Dab-Lys-NH2 [compound 10]
RNA duplex 1 Tm [2, 6]: 48.7 ± 1.2 °C | RNA duplex 1 ΔTm [2, 7]: 4.9 °C | RNA duplex 2 Tm [3]: 41.8 ± 0.5 °C | RNA duplex 2 ΔTm [3]: 8.2 °C | RNA duplex 3 Tm [4]: 51.1 ± 1.3 °C | RNA duplex 3 ΔTm [4]: 2.5 °C | H26a RNA Tm [5]: 56.9 ± 0.1 °C | H26a RNA ΔTm [5]: 3.5 °C

Aba-Lys-lac-Lys-lac-Lys-lac-Lys-lac-Lys-lac-Lys-lac-Lys-lac-Lys-lac-NH2 [compound 4]
RNA duplex 1 Tm [2, 6]: 46.4 ± 0.1 °C | RNA duplex 1 ΔTm [2, 7]: 2.6 °C | RNA duplex 2 Tm [3]: 35.2 ± 0.1 °C | RNA duplex 2 ΔTm [3]: 1.5 °C | RNA duplex 3 Tm [4]: 52.5 ± 0.7 °C | RNA duplex 3 ΔTm [4]: 3.9 °C | H26a RNA Tm [5]: 59.7 ± 0.6 °C | H26a RNA ΔTm [5]: 6.3 °C

Aba-Gly-Ala-Dab-Lys-Ala-Dab-His-lac-Dab-Lys-Ala-Dab-Lys-NH2 [compound 8]
RNA duplex 1 Tm [2, 8]: 52.6 ± 0.2 °C | RNA duplex 1 Tm [2, 6]: 48.9 ± 1.4 °C | RNA duplex 1 ΔTm [2, 9]: 11.1 °C | RNA duplex 1 ΔTm [2, 7]: 5.1 °C

Aba-Gly-Ala-Dab-Lys-Ala-Dab-Arg-lac-Dab-Lys-Ala-Dab-Lys-NH2 [compound 7]
RNA duplex 1 Tm [2, 6]: 52.5 ± 0.3 °C | RNA duplex 1 ΔTm [2, 7]: 8.7 °C | RNA duplex 2 Tm [3]: 41.8 ± 0.6 °C | RNA duplex 2 ΔTm [3]: 8.1 °C | RNA duplex 3 Tm [4]: 60.6 ± 0.8 °C | RNA duplex 3 ΔTm [4]: 12.0 °C | H26a RNA Tm [5]: 64.8 ± 0.1 °C | H26a RNA ΔTm [5]: 11.4 °C

Aba-Arg-lac-Arg-lac-Arg-lac-Arg-lac-Arg-lac-Arg-lac-Arg-lac-Arg-lac-NH2 [compound 2]
RNA duplex 1 Tm [2, 6]: 49.1 ± 0.7 °C | RNA duplex 1 ΔTm [2, 7]: 5.3 °C

Aba-Orn-lac-Orn-lac-Orn-lac-Orn-lac-Orn-lac-Orn-lac-Orn-lac-Orn-lac-NH2 [compound 5]
RNA duplex 1 Tm [2, 6]: 43.8 ± 0.9 °C | RNA duplex 1 ΔTm [2, 7]: 0.0 °C | RNA duplex 2 Tm [3]: 34.6 ± 0.7 °C | RNA duplex 2 ΔTm [3]: 1.0 °C | RNA duplex 3 Tm [4]: 49.1 ± 0.1 °C | RNA duplex 3 ΔTm [4]: 0.5 °C | H26a RNA Tm [5]: 52.3 ± 0.6 °C | H26a RNA ΔTm [5]: −1.1 °C

Aba-His-lac-His-lac-His-lac-His-lac-His-lac-His-lac-His-lac-His-lac-NH2 [compound 3]
RNA duplex 1 Tm [2, 8]: 46.1 ± 0.7 °C | RNA duplex 1 Tm [2, 6]: 44.3 ± 1.0 °C | RNA duplex 1 ΔTm [2, 9]: 4.6 °C | RNA duplex 1 ΔTm [2, 7]: 0.5 °C

Aba-Dab-lac-Dab-lac-Dab-lac-Dab-lac-Dab-lac-Dab-lac-Dab-lac-Dab-lac-NH2 [compound 6]
RNA duplex 1 Tm [2, 6]: 44.2 ± 0.2 °C | RNA duplex 1 ΔTm [2, 7]: 0.4 °C | RNA duplex 2 Tm [3]: 36.2 ± 0.1 °C | RNA duplex 2 ΔTm [3]: 2.6 °C | RNA duplex 3 Tm [4]: 48.2 ± 0.1 °C | RNA duplex 3 ΔTm [4]: −0.4 °C | H26a RNA Tm [5]: 53.9 ± 0.2 °C | H26a RNA ΔTm [5]: 0.5 °C

Aba-Gly-Ala-Dab-Lys-Ala-Dab-Dab-lac-Dab-Lys-Ala-Dab-Lys-NH2 [compound 11]
RNA duplex 1 Tm [2, 6]: 48.7 ± 0.2 °C | RNA duplex 1 ΔTm [2, 7]: 4.9 °C
